Measurements published in PubChem BioAssay (NCI).
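Values below derive from 48-hour exposures of cells grown in 96-well plates, with endpoints linearly interpolated between the two concentrations bracketing the appropriate inhibition level. GI50 is the concentration that inhibits growth by half. TGI marks complete inhibition of growth.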

How the values were obtained:
Assay in all cases: inhibition of tumour cell growth, NCI panel, 48 h
HOP-62 NSCLC = system: HOP-62 NSCLC
IGROV1 ovarian = system: IGROV1 ovarian
MALME-3M melanoma = system: MALME-3M melanoma
MOLT-4 leukemia = system: MOLT-4 leukemia
OVCAR-3 ovarian = system: OVCAR-3 ovarian
OVCAR-8 ovarian = system: OVCAR-8 ovarian
RPMI-8226 leukemia = system: RPMI-8226 leukemia
SK-MEL-5 melanoma = system: SK-MEL-5 melanoma
SR leukemia = system: SR leukemia
HS 578T breast = system: HS 578T breast

Row | Compound | TGI (HOP-62 NSCLC) | TGI (IGROV1 ovarian) | TGI (MALME-3M melanoma) | TGI (MOLT-4 leukemia) | TGI (OVCAR-3 ovarian) | TGI (OVCAR-8 ovarian) | TGI (RPMI-8226 leukemia) | TGI (SK-MEL-5 melanoma) | TGI (SR leukemia) | GI50 (HOP-62 NSCLC) | GI50 (HS 578T breast) | TGI (HS 578T breast) | GI50 (IGROV1 ovarian) | GI50 (MALME-3M melanoma) | GI50 (MOLT-4 leukemia) | GI50 (OVCAR-3 ovarian) | GI50 (OVCAR-8 ovarian) | GI50 (RPMI-8226 leukemia) | GI50 (SK-MEL-5 melanoma)
1 | CCOP(=O)(OCC)OC1C=CC2CCC1C2 (stereo unspecified) | > 100 µM | > 100 µM | > 100 µM | > 100 µM | > 100 µM | > 100 µM | 54.2 µM | > 100 µM | 58.7 µM |  |  |  |  |  |  |  |  |  | 
2 | N#CC(C(=O)C(=O)Nc1ccc(Cl)cc1)c1ccccc1 (stereo unspecified) | > 100 µM | > 100 µM | > 100 µM | > 100 µM | > 100 µM |  | > 100 µM | > 100 µM | > 100 µM |  |  |  |  |  |  |  |  |  | 
3 | CC(C)C(=O)NS(=O)(=O)c1ccccc1 | > 100 µM | > 100 µM | > 100 µM | > 100 µM | > 100 µM | > 100 µM | > 100 µM |  | > 100 µM |  |  |  |  |  |  |  |  |  | 
4 | C/C(CC(=O)Nc1cccc(Cl)c1C)=N\NC(=O)c1ccncc1 | > 100 µM | > 100 µM | > 100 µM | > 100 µM | > 100 µM | > 100 µM | > 100 µM | > 100 µM |  |  |  |  |  |  |  |  |  |  | 
5 | CSc1ccc2c(c1)C(=O)c1c-2n(CCCBr)c(=O)c2cc([N+](=O)[O-])ccc12 | 19.6 µM | > 100 µM | > 100 µM | 17 µM | > 100 µM | > 100 µM | > 100 µM | 25.8 µM |  | 1.05 µM | > 100 µM | > 100 µM | 12.1 µM | 11.6 µM | 0.558 µM | > 100 µM | 27.6 µM | 4.11 µM | 3 µM
6 | O=[N+]([O-])c1ccc(N2N=C(c3ccc(NCc4nc5ccccc5[nH]4)cc3)CC2c2ccco2)cc1 (stereo unspecified) | > 100 µM | > 100 µM | 66.4 µM | 31.3 µM | 80.2 µM | 57.7 µM | 94.5 µM | 31.9 µM | 33.8 µM |  |  |  |  |  |  |  |  |  | 
7 | Cc1cc(S(=O)(=O)O)c(NC(=O)C(=O)Cc2cc(=O)oc3cc(O)ccc23)cc1Cl | > 100 µM | > 100 µM | > 100 µM | > 100 µM | > 100 µM | > 100 µM |  | > 100 µM | > 100 µM |  |  |  |  |  |  |  |  |  | 
8 | O=C(Nc1ccc(F)cc1)c1cc(S(=O)(=O)Nc2nc3ccccc3o2)c(SCc2ccccc2)cc1Cl | 33.5 µM | 21.3 µM |  | 52.4 µM | 28.1 µM | 36 µM | 56.8 µM | 31.9 µM |  | 17.7 µM | 19.1 µM | 44.5 µM | 0.611 µM |  | 19.5 µM | 14.8 µM | 17.7 µM | 17.8 µM | 17.9 µM
9 | CCCN1CN(C(C(=O)N[C@@H]2C(=O)N3C2SC(C)(C)C3C(=O)O)c2ccc(O)cc2)CSC1=S (stereo partly specified) | > 100 µM | > 100 µM | > 100 µM | > 100 µM | 72.6 µM | > 100 µM | > 100 µM | > 100 µM |  |  |  |  |  |  |  |  |  |  | 
10 | CN[C@@H](C)[C@@H](NC)c1ccccc1 |  | > 100 µM |  | > 100 µM | > 100 µM | > 100 µM | > 100 µM | > 100 µM |  |  |  |  |  |  |  |  |  |  | 
11 | Cc1cccc(C)c1NC(=O)C(=O)C(C(=O)c1ccccc1-c1ccccc1)C1OC(=O)c2ccccc21 (stereo unspecified) | 35.7 µM | 64.1 µM | 33.4 µM | 58.1 µM | 38 µM | > 100 µM | 60.1 µM | 33.7 µM |  |  |  |  |  |  |  |  |  |  | 
